# Experimental data taken from patent US7985836B2, “Antimicrobial peptides and methods of identifying the same” (priority 2006, dated 2011).
# Where two headings read alike, the source gives them in different places. Square brackets hold non-standard residues; d marks the D form. Ends that are not written are not given here. Peptide text beside a SMILES is read from it. Phg = N[C@H](C(=O)O)c1ccccc1
# Columns and labels:
# [1] = Analytical reversed-phase HPLC retention time as a measure of hydrophobicity; type: physicochemical; conditions: for tRP, retention time on a reverse-phase column of HPLC as a measure of hydrophobicity: Table 4, 1 ml/min; for tRP, retention time on a reverse-phase column of HPLC as a measure of hydrophobicity / tRP, retention time on a reversed-phase HPLC column as a measure of hydrophobicity: Vydac C18, acetonitrile 5% to 95%; for tRP, retention time on a reversed-phase HPLC column as a measure of hydrophobicity: Table 1, 1 mL/min, ~25° C.
# Protocol: Analytical Reversed-Phase HPLC. The retention time of the peptide was measured on an ISCO (Lincoln, Nebr.) HPLC system equipped with a Vydac (Hesperia, Calif.) C18 reversed-phase column (250×4.6 mm) at an ambient temperature of ˜25° C. The peptide was eluted with a linear gradient of acetonitrile (containing 0.1% TFA) from 5% to 95% at a flow rate of 1 mL/min. Peptides were detected by UV absorbance at 215 nm.
# Analytical reverse-phase HPLC. The retention time of each peptide was measured on an ISCO HPLC system equipped with aVydac C18 reverse-phase column (250×4.6 mm). The peptide was eluted with a linear gradient of acetonitrile (containing 0.1% TFA) from 5% to 95% at a flow rate of 1 ml/min. Peptides were detected by UV absorbance at 215 nm.
# [2] = test system: wild type E. coli K12; type: cell-based
# Protocol: Antibacterial Assays. The antibacterial activity of the LL-37 peptides and its analogues was analyzed using the standard approach of microdilution (Wang et al. (2005) J. Biol. Chem., 280:5803-5811; Yu et al. (2002) J. Pept. Res., 60:1-9). In brief, a small culture of wild type E. coli K12 was grown overnight. A fresh culture was inoculated with a small aliquot of the overnight culture and incubated at 37° C. until the optical density reached the mid-logarithmic stage. The culture (90 μL each) was then diluted to an A600 of 0.001 and partitioned into a 96-well plate with ˜10^6 cells per well. […] Each peptide assay was repeated 3 times. The plate was then further incubated at 37° C. overnight (˜16 hours) and read on an Ultra Microplate Reader at 620 nm (Bio-TEK Instruments; Winooski, Vt.).
# [3] = test system: Escherichia coli D21; conditions: Escherichia coli D21, previous assays (Johansson 1998; Oren 1999); cited from earlier work
# [4] = test system: drug-resistant KBv; assay: Anticancer/cytotoxicity MTT assay, KBv cells; type: cell-based; conditions: peptide concentration that kills 50% of the cells, 68 hours of exposure, read-out: KBv LC50
# Protocol: (§1) Anticancer Assays. Cytotoxicity studies were performed using the calorimetric MTT assays for assessing cell viability (Mark et al. (1999) Life Sci., 64:1941-1953; Hansen et al. (1989) J. Immunol. Methods, 119:203-210). Three cell lines were used, including drug-resistant KBv, drug-sensitive KB, and the nontransformed human brain microvessel endothelial cells (HBMEC). In brief, the cells were seeded onto 96-well plates at a density of 5000 cells per well. The cells were exposed to various concentrations (5-320 μM) of LL-37 peptides (triplicate assays for each) 24 hours after seeding. After 68 hours of exposure, the peptide solution was replaced with fresh media and followed by cytotoxicity analysis using the MTT assay.
# (§2) The MTT assay was performed by incubating the cells with 5 mg/mL of 3-[4,5-dimethylthiazol-2-yl]-2,5-dephenyltetrazolium bromide (MTT) for 2 hours at 37° C. The cells were then solubilized in a 50:50 mixture of dimethyl formamide (DMF) and H2O containing 20% SDS (pH 4.7). The plates were read after overnight incubation. Viability is directly proportional to the amount of metabolic conversion of MTT to formazin in the mitochondria of living cells and is assessed by measuring the absorbance at 550 nm using a Microkinetics Reader (Fisher Biotech). Viability is expressed as a percent of control cells receiving only culture media without any peptides. The data from the cytotoxicity studies were plotted using Microsoft Excel, and the LC50 (concentration resulting in 50% reduction in cell viability) and standard deviations were determined for each peptide.
# [5] = test system: drug-sensitive KB; type: cell-based; conditions: peptide concentration that kills 50% of the cells; MTT, 68 hours of exposure
# Protocol: as §1, §2
# [6] = Cytotoxicity MTT assay, HBMEC; type: cell-based; conditions: normal human cells, peptide concentration that kills 50% of the cells, 68 hours of exposure, read-out: HBMEC LC50
# Protocol: as §1, §2
# [7] = test system: E. coli strain K12 3000; conditions: minimum concentration at which E. coli growth is completely inhibited; from Wang et al. (2005) J. Biol. Chem. 280:5803; cited from earlier work
# [8] = test system: E. coli strain K12 3000; assay: Antibacterial assay, microdilution MIC (Example 2); type: cell-based; conditions: minimum concentration at which E. coli growth is completely inhibited
# Protocol: Antibacterial assay. The antibacterial activity of the peptides was analyzed using the standard microdilution approach (Wang et al. (2005) J. Biol. Chem., 280:5803-5811). In brief, a small culture of E. coli strain K12 3000 was grown overnight. A fresh culture was inoculated with a small aliquot of the overnight culture and incubated at 37° C. until the culture reached the logarithmic stage (A600 ˜0.5, 9×10^8 cells/ml). The culture was then diluted to A600 ˜0.001 and partitioned into a 96-well plate with ˜10^6 cells per well (90 μl each). Then, 10 μl aliquots of the peptide at different concentrations (three assays for each) were added to the cultures, allowing the minimum inhibition concentration (MIC) to be measured. The plate was then further incubated overnight (˜16 hours) at 37° C. and read on an Ultra Microplate Reader at 620 nm (Bio-TEK Instruments).
# [9] = minimum inhibitory concentration, wild type E. coli K12, overnight (~16 hours) at 37° C.
Compound,retention time on reversed-phase HPLC (hydrophobicity) [1],"tRP, retention time on a reverse-phase column of HPLC as a measure of hydrophobicity [1]",CC50 [4],CC50 at 68 h [6],other results
"CC[C@H](C)[C@H](NC(=O)[C@H](CCCCN)NC(=O)[C@H](CCCCN)NC(=O)[C@@H](NC(=O)[C@@H](NC(=O)[C@H](CC(=O)O)NC(=O)[C@H](Cc1ccccc1)NC(=O)[C@H](CC(C)C)NC(=O)CN)[C@@H](C)CC)[C@@H](C)CC)C(=O)N[C@@H](C)C(=O)N[C@@H](CCC(=O)O)C(=O)N[C@@H](CO)C(=O)N[C@H](C(N)=O)c1ccccc1 [F13X-aurein 1.2, GLFDIIKKIAESX] (H-GLFDIIKKIAES[Phg]-NH2; N-terminus and C-terminus assumed)",38.3 min,38.3 min,,,
"CC[C@H](C)[C@H](NC(=O)[C@H](CCCCN)NC(=O)[C@H](CCC(=O)O)NC(=O)[C@H](CCCCN)NC(=O)[C@H](CO)NC(=O)[C@H](CCCCN)NC(=O)[C@H](CCCNC(=N)N)NC(=O)[C@H](Cc1ccccc1)NC(=O)[C@H](Cc1ccccc1)NC(=O)[C@H](CC(=O)O)NC(=O)CNC(=O)[C@H](CC(C)C)NC(=O)[C@@H](N)CC(C)C)C(=O)NCC(=O)N[C@@H](CCCCN)C(=O)N[C@@H](CCC(=O)O)C(=O)N[C@@H](Cc1ccccc1)C(=O)N[C@@H](CCCCN)C(=O)N[C@@H](CCCNC(=N)N)C(=O)N[C@H](C(=O)N[C@H](C(=O)N[C@@H](CCC(N)=O)C(=O)N[C@@H](CCCNC(=N)N)C(=O)N[C@H](C(=O)N[C@@H](CCCCN)C(=O)N[C@@H](CC(=O)O)C(=O)N[C@@H](Cc1ccccc1)C(=O)N[C@@H](CC(C)C)C(=O)N[C@@H](CCCNC(=N)N)C(=O)N[C@@H](CC(N)=O)C(=O)N[C@@H](CC(C)C)C(=O)N[C@H](C(=O)N1CCC[C@H]1C(=O)N[C@@H](CCCNC(=N)N)C(=O)N[C@H](C(=O)N[C@@H](CCC(=O)O)C(=O)N[C@@H](CO)C(=O)O)[C@@H](C)O)C(C)C)[C@@H](C)CC)C(C)C)[C@@H](C)CC [LL-37, reference compound]",,,,,"E. Coli MIC [2, 9]: 40 µM; MIC [3]: 5 to 25 µM"
"FKRIVQRIKDFLR-NH2 [LL-37(17-29), FKRIVQRIKDFLR]",,,60 µM,55 ± 2 µM,"E. Coli MIC [2, 9]: 40 µM; KB LC50 [5]: 57 ± 3 µM"
"FKRIVQRIKDFLRNLV-NH2 [LL-37(17-32), FKRIVQRIKDFLRNLV]",,,30 µM,25 ± 1 µM,"E. Coli MIC ([2]; K12, 16 h): 20 µM; KB LC50 [5]: 30 ± 1 µM"
"GLFDIIKKIAESF [aurein 1.2, antimicrobial and anticancer peptide isolated from the Australian Bell Frog, reference compound]",43 min,43.0 min,,,"MIC [7]: 75 µM; tRP, retention time on a reversed-phase HPLC column as a measure of hydrophobicity [1]: 42.0 min"
"GLFDIIKKIAESW-NH2 (C-terminus assumed) [F13W-aurein 1.2, GLFDIIKKIAESW]",,40.5 min,,,MIC [8]: 320 µM
"GLFDKLKSLVSDDKK [anchor, bacterial membrane anchor of glucose-specific enzyme IIA of E. coli, reference compound]",29.5 min,29.5 min,,,"tRP, retention time on a reversed-phase HPLC column as a measure of hydrophobicity [1]: 29.5 min"
IGKEFKRIVQRIKDFLRNLVPRTES [LL-37(13-37)],,,39 µM,38 ± 3 µM,"E. Coli MIC ([2]; K12, 16 h): 80 µM; KB LC50 [5]: 40 ± 0 µM"
"LLGDFFRKSKEK [LL-37(1-12), LLGDFFRKSKEK]",,,> 320 µM,> 320 µM,
"LLGDFKRIVQRIKDF-NH2 [LL-37(1-4, 17-27), LLGDFKRIVQRIKDF]",,,> 320 µM,> 320 µM,"E. Coli MIC [2, 9]: 250 µM"
"RLFDKIRQVIRKF-NH2 (C-terminus assumed) [LLAA, RLFDKIRQVIRKF]",30.8 min,30.8 min,,,
